In US20120029187A1, “HALOALKYLSULFONANILIDE DERIVATIVE” (Nissan Chemical Industries, Ltd., priority 2009, published 2012):

Experiments:
Format in all cases: in vivo
barnyardgrass [1] = test: Test Example 2: herbicidal effects during the vegetation period under submerged conditions; conditions: treatment during the vegetation period under submerged conditions; dose 2.52 g/a
How it was run: (§1)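 Barnyardgrass, bulrush and ducksalad were co-sown in alluvial soil flooded to 4 cm and grown in a greenhouse at 25 to 30° C. At the 1- or 2-leaf stage, water-diluted emulsifiable concentrates went onto the water surface at set doses (g/a). Herbicidal effect was scored three weeks later on a graded scale.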

ducksalad [2] = test: as above; conditions: treatment during the vegetation period under submerged conditions; dose 2.52 g/a
How it was run: as §1

bulrush [3] = test: as above; conditions: treatment during the vegetation period under submerged conditions; dose 2.52 g/a
How it was run: as §1

transplanted rice = test: Test Example 1: preemergence treatment under submerged conditions, effect on crop; conditions: dose 2.52 g/a
How it was run: (§2)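 Scoring 0 (<5% mortality) to 5 (≥90%) was done three weeks after preemergence application to the water surface of submerged (4 cm) alluvial soil, doses given as g per are. Weeds were seeded and 2.5-leaf rice transplanted on the treatment day; greenhouse at 25–30 °C.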

barnyardgrass [4] = test: Test Example 1: herbicidal effects in preemergence treatment under submerged conditions; conditions: dose 2.52 g/a
How it was run: as §2

ducksalad [5] = test: as above; conditions: dose 2.52 g/a
How it was run: as §2

bulrush [6] = test: as above; conditions: dose 2.52 g/a
How it was run: as §2

common lambsquater [7] = test: Test Example 4: herbicidal effect in foliage treatment; conditions: dose 6.3 g/a, three weeks after application
How it was run: (§3)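 Sowing in sterilized diluvial soil, ~1.5 cm cover; growth 14 d, 25–30° C greenhouse; foliar spray of water-diluted EC at predetermined g/a; scoring 3 wk later on graded scale.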

common ragweed = test: as above; conditions: dose 6.3 g/a, three weeks after application
How it was run: as §3

barnyardgrass [8] = test: as above; conditions: dose 6.3 g/a, three weeks after application
How it was run: as §3

large crabgrass [9] = test: as above; conditions: dose 6.3 g/a, three weeks after application
How it was run: as §3

giant foxtail [10] = test: as above; conditions: dose 6.3 g/a, three weeks after application
How it was run: as §3

common chickweed [11] = test: as above; conditions: dose 6.3 g/a, three weeks after application
How it was run: as §3

water foxtail [12] = test: as above; conditions: dose 6.3 g/a, three weeks after application
How it was run: as §3

beadstraw [13] = test: as above; conditions: dose 6.3 g/a, three weeks after application
How it was run: as §3

wild oat [14] = test: as above; conditions: dose 6.3 g/a, three weeks after application
How it was run: as §3

Italian ryegrass [15] = test: as above; conditions: dose 6.3 g/a, three weeks after application
How it was run: as §3

common lambsquater [16] = test: Test Example 3: herbicidal effects in soil treatment; conditions: dose 6.3 g/a
How it was run: (§4)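 Seeds were sown in sterilized diluvial soil and covered with about 1.5 cm of soil. Compounds, formulated as emulsifiable concentrates and diluted with water, were sprayed evenly over the soil surface at set doses in g/a. Herbicidal effect was scored on a rating scale three weeks later.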

barnyardgrass [17] = test: as above; conditions: dose 6.3 g/a
How it was run: as §4

large crabgrass [18] = test: as above; conditions: dose 6.3 g/a
How it was run: as §4

giant foxtail [19] = test: as above; conditions: dose 6.3 g/a
How it was run: as §4

redroot pigweed = test: as above; conditions: dose 6.3 g/a
How it was run: as §4

common chickweed [20] = test: as above; conditions: dose 6.3 g/a
How it was run: as §4

water foxtail [21] = test: as above; conditions: dose 6.3 g/a
How it was run: as §4

beadstraw [22] = test: as above; conditions: dose 6.3 g/a
How it was run: as §4

wild oat [23] = test: as above; conditions: dose 6.3 g/a
How it was run: as §4

Italian ryegrass [24] = test: as above; conditions: dose 6.3 g/a
How it was run: as §4

## CCC(=O)N(c1ccccc1CN1COC(C)(C)CC1=O)S(=O)(=O)C(F)(F)F [II-19, 6,6-dimethyl-3-[2-(N-ethylcarbonyl-N-trifluoromethanesulfonyl)aminobenzyl]-1,3-oxazinan-4-one]
Barnyardgrass [1]
  A: barnyardgrass, herbicidal effect (evaluation scale 0-5): 5 (mortality of 90% or above (nearly complete death))
Ducksalad [2]
  C: ducksalad, herbicidal effect (evaluation scale 0-5): 5 (mortality of 90% or above (nearly complete death))
Bulrush [3]
  B: bulrush, herbicidal effect (evaluation scale 0-5): 5 (mortality of 90% or above (nearly complete death))
Transplanted rice
  a: transplanted rice, effect on crop (evaluation scale 0-5): 0 (mortality of less than 5% (almost ineffective))
Barnyardgrass [4]
  A: barnyardgrass, herbicidal effect (evaluation scale 0-5): 5 (mortality of 90% or above (nearly complete death))
Ducksalad [5]
  C: ducksalad, herbicidal effect (evaluation scale 0-5): 5 (mortality of 90% or above (nearly complete death))
Bulrush [6]
  B: bulrush, herbicidal effect (evaluation scale 0-5): 5 (mortality of 90% or above (nearly complete death))
Common lambsquater [7]
  L: common lambsquater, herbicidal effect: 0 (mortality of less than 5% (almost ineffective))
Common ragweed
  J: common ragweed, herbicidal effect: 5 (mortality of 90% or above (nearly complete death))
Barnyardgrass [8]
  A: barnyardgrass, herbicidal effect: 5 (mortality of 90% or above (nearly complete death))
Large crabgrass [9]
  D: large crabgrass, herbicidal effect: 4 (mortality of at least 70% and less than 90%)
Giant foxtail [10]
  E: giant foxtail, herbicidal effect: 4 (mortality of at least 70% and less than 90%)
Common chickweed [11]
  N: common chickweed, herbicidal effect: 4 (mortality of at least 70% and less than 90%)
Water foxtail [12]
  G: water foxtail, herbicidal effect: 5 (mortality of 90% or above (nearly complete death))
Beadstraw [13]
  O: beadstraw, herbicidal effect: 5 (mortality of 90% or above (nearly complete death))
Wild oat [14]
  F: wild oat, herbicidal effect: 0 (mortality of less than 5% (almost ineffective))
Italian ryegrass [15]
  H: Italian ryegrass, herbicidal effect: 4 (mortality of at least 70% and less than 90%)
Common lambsquater [16]
  L: common lambsquater, herbicidal effect (evaluation scale 0-5): 0 (mortality of less than 5% (almost ineffective))
Barnyardgrass [17]
  A: barnyardgrass, herbicidal effect (evaluation scale 0-5): 5 (mortality of 90% or above (nearly complete death))
Large crabgrass [18]
  D: large crabgrass, herbicidal effect (evaluation scale 0-5): 5 (mortality of 90% or above (nearly complete death))
Giant foxtail [19]
  E: giant foxtail, herbicidal effect (evaluation scale 0-5): 2 (mortality of at least 20% and less than 40%)
Redroot pigweed
  K: redroot pigweed, herbicidal effect (evaluation scale 0-5): 2 (mortality of at least 20% and less than 40%)
Common chickweed [20]
  N: common chickweed, herbicidal effect (evaluation scale 0-5): 4 (mortality of at least 70% and less than 90%)
Water foxtail [21]
  G: water foxtail, herbicidal effect (evaluation scale 0-5): 5 (mortality of 90% or above (nearly complete death))
Beadstraw [22]
  O: beadstraw, herbicidal effect (evaluation scale 0-5): 4 (mortality of at least 70% and less than 90%)
Wild oat [23]
  F: wild oat, herbicidal effect (evaluation scale 0-5): 0 (mortality of less than 5% (almost ineffective))
Italian ryegrass [24]
  H: Italian ryegrass, herbicidal effect (evaluation scale 0-5): 5 (mortality of 90% or above (nearly complete death))
